In patent US8951995B2, “Use of 24-nor-UDCA” (Medizinische Universitat Graz, priority 2005, dated 2015):
Where two headings read alike, the source gives them in different places.

Legend:
Mrp3 = assay: Real-time PCR, relative expression of Mrp3; type: in vivo; conditions: liver mRNA, Mdr2−/− mice fed 0.5% w/w for 4 weeks; KO = 100; mean ± SD, n = 5
Procedure: (§1) Two months-old Mdr2^−/− (a time point when sclerosing cholangitis is already fully established in these animals (Fickert, Zollner, et al. 2002) were either fed a diet supplemented with norUDCA (0.5%, w/w) or UDCA as a clinical comparator (0.5%, w/w) for 4 weeks and compared to standard-diet-fed Mdr2^−/− and wild type controls.
(§2) RNA isolation, cDNA synthesis and Taqman® real time PCR were performed as described previously (Wagner, Fickert, et al. 2003). The following primers and 5′ FAM, 3′ TAMRA labeled probes were used: Col1a1 fwd: […] (Seq ID No. 35), Col1a1 rev: […] (Seq ID No. 36) and Col1a1 probe: […] (Seq ID No. 37); TIMP-1 fwd: […] (Seq ID No. 38), TIMP-1 rev: […] (Seq ID No. 39) and TIMP-1 probe: […] (Seq ID No. 40); MMP-2 fwd: […] (Seq ID No. 41), MMP-2 rev: […] (Seq ID No. 42) and MMP-2 probe: […] (Seq ID No. 43).

Cyp3a11 = assay: Real-time PCR, relative expression of Cyp3a11; type: in vivo; conditions: liver mRNA, Mdr2−/− mice fed 0.5% w/w for 4 weeks; KO = 100; mean ± SD, n = 5
Procedure: as §1, §2

Mdr2−/− mice [1] = assay: Bile flow and biliary excretion measurement; type: in vivo; conditions: Mdr2−/− mice fed 0.5% w/w for 4 weeks, mean ± SD; for Bile flow: normalized to liver weight
Procedure: as §1
Bile flow was determined gravimetrically and normalized to liver weight as described previously (Fickert, Zollner, et al. 2001). Biliary phospholipids concentration was determined using a commercially available kit (Phospholipid B; Wako, Neuss, Germany) according to the manufacture's instructions. Biliary cholesterol concentration was determined using a commercial available kit (Cholesterol liquicolor; Human, Wiesbaden, Germany) according to the manufacture's instructions. Biliary gluthathione (GSH) concentration was determined after protein precipitation in 5% metaphosphoric acid using the Glutathione Assay Kit (Calbiochem, San Diego, US) according to the manufacturer's instructions. Biliary bile acid concentration was analyzed using a 3-alpha-hydroxysteroid dehydrogenase assay (Ecoline St, DiaSys) according to the manufacturer's instructions.

Mrp4 = assay: Real-time PCR, relative expression of Mrp4; type: in vivo; conditions: liver mRNA, Mdr2−/− mice fed 0.5% w/w for 4 weeks; KO = 100; mean ± SD, n = 5
Procedure: as §1, §2

Mdr2−/− mice [2] = assay: Routine serum biochemistry in bile acid-fed Mdr2−/− mice; type: in vivo; conditions: Mdr2−/− mice fed 0.5% w/w in diet for 4 weeks, mean ± SD, n = 5
Procedure: as §1
Serum samples were stored at −70° C. until analysis of alanine transaminase (ALT) and alkaline phosphatase (AP) by routine clinical chemistry performed on a Hitachi 717 analyzer (Boehringer Mannheim, Mannheim, Germany). For determination of total serum bile acid levels, a commercial 3-alpha-hydroxysteroid dehydrogenase assay (Ecoline S+; DiaSys, Holzheim, Germany) was used.

Cyp2b10 = assay: Real-time PCR, relative expression of Cyp2b10; type: in vivo; conditions: liver mRNA, Mdr2−/− mice fed 0.5% w/w for 4 weeks; KO = 100; mean ± SD, n = 5
Procedure: as §1, §2

Cyp7a1 = assay: Real-time PCR, relative expression of Cyp7a1; type: in vivo; conditions: liver mRNA, Mdr2−/− mice fed 0.5% w/w for 4 weeks; KO = 100; mean ± SD, n = 5
Procedure: as §1, §2

Sult2a1 = assay: Real-time PCR, relative expression of Sult2a1; type: in vivo; conditions: liver mRNA, Mdr2−/− mice fed 0.5% w/w for 4 weeks; KO not detectable, KO + UDCA = 100; mean ± SD, n = 5
Procedure: as §1, §2

Mdr2−/− mice [3] = assay: Liver histology (H&E, Sirius red) in bile acid-fed Mdr2−/− mice; type: in vivo
Excerpt: as §1
For conventional light microscopy, livers were fixed in 4% neutral buffered formaldehyde solution and embedded in paraffin. Sections (4 μm thick) were stained with H&E and Sirius red stain, respectively. The sections were coded and examined by a pathologist (H. D.) unaware of the animals' treatment.

Ugt1a1 = assay: Real-time PCR, relative expression of Ugt1a1; type: in vivo; conditions: liver mRNA, Mdr2−/− mice fed 0.5% w/w for 4 weeks; KO = 100; mean ± SD, n = 5
Procedure: as §1, §2

[4] = Estimated choleretic potency in mice; type: in vivo; conditions: relative to normal bile flow
[5] = humans, relative to normal bile flow; cited from earlier work
collagen 1 and 3 mRNA = assay: Hepatic collagen 1 and 3 mRNA expression; type: in vivo; conditions: Mdr2−/− mice fed 0.5% w/w for 4 weeks
Procedure: as §1, §2

[6] = test system: hepatocytes and cholangiocytes; assay: Immunohistochemistry for proliferation marker Ki-67; type: in vivo; conditions: Mdr2−/− mice fed 0.5% w/w for 4 weeks; FIG. 5
Procedure: as §1
Immunohistochemistry for Ki-67 was performed on microwave-treated ([…] citrate buffer pH 6.0) paraffin sections (4 μm thick) using a polyclonal rabbit anti-Ki-67 antibody (dilution 1:750, Novocastra, Newcastle upon Tyne, UK). Binding of the antibody was detected using the ABC system (Dako) using AEC (Dako) as substrate. Number of proliferating hepatocytes was calculated by counting positive nuclei in 30 high power fields in sections of 3 animals in each group. Number of proliferating bile duct epithelial cells was calculated by counting positive nuclei in 20 portal fields in sections of 3 animals in each group.

[7] = test system: portal neutrophils (CD11b-positive cells); assay: Immunohistochemistry for neutrophils marker CD-11b; type: in vivo; conditions: Mdr2−/− mice fed 0.5% w/w for 4 weeks, vs standard diet-fed KO; FIG. 3
Excerpt: as §1
To quantify neutrophils CD 11b-positive cells were detected as described previously (Fickert, Fuchsbichler, et al. 2004) with the modification that binding of the antibody was detected using the ABC system (Dako) using AEC (Dako) as substrate. Number of neutrophils was calculated by counting positive cells in 20 portal fields in sections of 3 animals in each group.

VCAM = assay: Immunohistochemistry for vascular cell adhesion molecule (VCAM); type: in vivo; conditions: interlobular and lobular bile ducts, Mdr2−/− mice fed 0.5% w/w for 4 weeks; FIG. 4
Procedure: as §1
Immunohistochemistry for VCAM was performed on acetone fixed cryosections using the monoclonal rat anti CD106 (VCAM-1, dilution 1:30, PharMingen, San Diego, Calif., USA) and binding of the antibody was detected using the ABC system (Dako) using AEC (Dako) as substrate.

Ntcp, Oatp1, Bsep, Mrp2 = assay: mRNA expression of hepatocellular uptake and canalicular efflux systems; type: in vivo; conditions: Mdr2−/− mice fed 0.5% w/w for 4 weeks; data not shown
Procedure: as §1, §2

[8] = rats; cited from earlier work
[9] = norUDCA metabolism and excretion in mice; type: in vivo
[10] = cited from earlier work
Mdr2−/− mice [11] = assay: Hepatic hydroxyproline content; type: in vivo; conditions: Mdr2−/− mice fed 0.5% w/w for 4 weeks, vs control diet-fed KO; FIG. 2
Procedure: as §1
To quantify liver fibrosis in our model hepatic hydroxyproline content was determined. The right liver lobe was homogenized in 6-normal HCl (200 mg liver tissue/4 ml HCl) and hydrolyzed at 110° C. for 16 h. After filtration 50 μl were added to 450 μl 2.2% NaOH dissolved in citrate-acetate buffer (50 g citric acid×H2O, 12 ml acidic acid, 120 g sodium acetate×3H2O, 34 g NaOH ad 1 liter distilled water; pH 6.0). After adding 250 μl perchloric acid and 12 min incubation at room temperature 250 μl p-dimethylaminobenzaldehyde solution was added and incubated at 60° C. for 20 min. Hydroxyproline content was measured at 565 nm using a hydroxyproline standard curve.

[12] = Mdr2−/− mice fed 0.5% w/w for 4 weeks

Row | SMILES | Relative expression level of Mrp3 (Mrp3) | Relative expression level of Cyp3a11 (Cyp3a11) | Biliary excretion of bicarbonate (Mdr2−/− mice [1]) [nmol/g/min] | Biliary excretion of bile acids (Mdr2−/− mice [1]) [nmol/g/min] | Biliary excretion of cholesterol (Mdr2−/− mice [1]) [nmol/g/min] | Biliary excretion of glutathione (Mdr2−/− mice [1]) [nmol/g/min] | Biliary excretion of phospholipids (Mdr2−/− mice [1]) [nmol/g/min] | Bile flow (Mdr2−/− mice [1]) [µL/g/min] | Relative expression level of Mrp4 (Mrp4) | ALT (Mdr2−/− mice [2]) [U/L] | AP (Mdr2−/− mice [2]) [U/L] | Bili (Mdr2−/− mice [2]) | Relative expression level of Cyp2b10 (Cyp2b10) | Relative expression level of Cyp7a1 (Cyp7a1) | Relative expression level of Sult2a1 (Sult2a1) | Relative expression level of Ugt1a1 (Ugt1a1) | also measured
1 | C[C@H](CCC(=O)O)[C@H]1CC[C@H]2[C@@H]3[C@@H](O)C[C@@H]4C[C@H](O)CC[C@]4(C)[C@H]3CC[C@]12C [UDCA, Ursodeoxycholic acid] | 194 ± 55 | 246 ± 72 | 67.1 ± 10.0 | 37.2 ± 7.6 | 0.3 ± 0.1 | 5.6 ± 1.1 | 0.3 ± 0.03 | 2.4 ± 0.3 | 357 ± 95 | 576 ± 175 | 399 ± 73 | 0.55 ± 0.19 | 751 ± 245 | 9 ± 4 | 100 ± 46 | 137 ± 55 | Animals showing bile infarcts (Mdr2−/− mice [3]; [12]): 2 out of 5
2 | C[C@H](CC(=O)O)[C@H]1CC[C@H]2[C@@H]3[C@@H](O)C[C@@H]4C[C@H](O)CC[C@]4(C)[C@H]3CC[C@]12C [norUDCA, 3-alpha,7-alpha-dihydroxy-24-nor-5-beta-cholan-23-oic acid] | 207 ± 73 | 241 ± 45 | 98.8 ± 14.6 | 29.5 ± 2.3 | 0.2 ± 0.04 | 5.8 ± 1.2 | 0.3 ± 0.1 | 3.5 ± 0.3 | 590 ± 193 | 165 ± 23 | 162 ± 25 | 0.23 ± 0.2 | 1294 ± 418 | 60 ± 30 | 24157 ± 14948 | 304 ± 81 | Estimated choleretic potency [4]: about three times above that of normal bile flow; Estimated choleretic potency [5]: about three times above that of normal bile flow; Hepatic collagen 1 and 3 mRNA expression (collagen 1 and 3 mRNA): significant reduction; Proliferation of bile duct epithelial cells / cholangiocytes (Ki-67 positive) [6]: significantly reduced the degree of hepatocyte and bile duct epithelial cell proliferation to nearly wild type control levels; Proliferation of hepatocytes (Ki-67 positive) [6]: significantly reduced the degree of hepatocyte and bile duct epithelial cell proliferation to nearly wild type control levels; Number of portal neutrophils (CD11b-positive cells per 20 portal fields) / portal inflammation [7]: significantly reduced number of portal neutrophils; VCAM expression in bile duct epithelial cells (VCAM): significantly lower VCAM expression; mRNA expression of hepatocellular uptake (Ntcp, Oatp1) and canalicular efflux (Bsep, Mrp2) systems (Ntcp, Oatp1, Bsep, Mrp2): no significant effects; Induced bile flow [8]: 0.16 mL/min/kg; Major metabolite of norUDCA ([9]; mice): glucuronide; Renal excretion of norUDCA ([9]; mice): considerable renal excretion; Bile acid sulfates and glucuronides in urine ([9]; norUDCA fed Mdr2−/− mice): appearance of bile acid sulfates and glucuronides in urine; Renal excretion of norUDCA ([10]; humans (men)): considerable renal excretion; Major metabolite of norUDCA ([10]; humans): glucuronide; Ductular proliferation (Mdr2−/− mice [3]; [12]): virtually absent; Large bile duct disease (H&E staining) (Mdr2−/− mice [3]; Mdr2−/− mice fed 0.5% w/w for 4 weeks, vs control diet-fed KO, FIG. 1A): absent; Fibrosis with periductal collagen fibers (Sirius red staining) (Mdr2−/− mice [3]; Mdr2−/− mice fed 0.5% w/w for 4 weeks, vs control diet-fed KO, FIG. 1C): even more pronounced reduction; Sclerosing cholangitis (Mdr2−/− mice [3]; Mdr2−/− mice, model for PSC, within 4 weeks): cures sclerosing cholangitis; Hepatic hydroxyproline content (Mdr2−/− mice [11]): reduced to baseline levels
